Data from the supplement of paper PMC10307832.

Legend:
Experiment in all cases: relative viability (nuclei count vs DMSO), 5 days (fraction); higher = more cells survive
Cediranib + Tozasertib = compound: COc1cc2c(Oc3ccc4[nH]c(C)cc4c3F)ncnc2cc1OCCCN1CCCC1 [Cediranib] + Cc1cc(Nc2cc(N3CCN(C)CC3)nc(Sc3ccc(NC(=O)C4CC4)cc3)n2)n[nH]1 [Tozasertib] (partner 0.1 µM)
Procedure, shortened: (§1)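 For relative viability, nuclei counts in treated wells were divided by those in vehicle wells. Lung cancer cell lines had been pin-tool dosed in 1536-well plates the day after seeding and cultured for 5 days, then fixed and stained in one step (final 0.05% Triton X-100, 1% formaldehyde, 1 ug/ml Hoechst) and imaged at 4×. Doses were one drug alone or a fixed anchor-drug dose plus five library-drug doses (not always all listed) in √10 steps, and values are duplicate-plate medians.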

Decitabine + Bortezomib = compound: Nc1ncn([C@H]2C[C@H](O)[C@@H](CO)O2)c(=O)n1 [Decitabine] + CC(C)C[C@H](NC(=O)[C@H](Cc1ccccc1)NC(=O)c1cnccn1)B(O)O [Bortezomib] (partner 0.002 µM)
Procedure, shortened: as §1

Decitabine + Crizotinib = compound: Nc1ncn([C@H]2C[C@H](O)[C@@H](CO)O2)c(=O)n1 [Decitabine] + C[C@@H](Oc1cc(-c2cnn(C3CCNCC3)c2)cnc1N)c1c(Cl)ccc(F)c1Cl [Crizotinib] (partner 1 µM)
Procedure, shortened: as §1

[1] = compound: O=C(C[C@H]1NCCC[C@@H]1O)Cn1cnc2cc(Br)c(Cl)cc2c1=O (racemic) [Halofuginone] + O=C(CCCCCCC(=O)Nc1ccccc1)NO [Vorinostat] (partner 1 µM)
Procedure, shortened: as §1

Cell Line: ChaGo-K-1
- relative viability (Cediranib + Tozasertib; first compound 0.04 µM): 0.214
- relative viability (Cediranib + Tozasertib; first compound 0.1265 µM): 0.263
- relative viability (Cediranib + Tozasertib; first compound 0.4 µM): 0.236
- relative viability (Cediranib + Tozasertib; first compound 1.265 µM): 0.202
- relative viability (Cediranib + Tozasertib; first compound 4 µM): 0.209
- relative viability (Decitabine + Bortezomib; first compound 0.04 µM): 0.768
- relative viability (Decitabine + Bortezomib; first compound 0.1265 µM): 0.756
- relative viability (Decitabine + Bortezomib; first compound 0.4 µM): 0.579
- relative viability (Decitabine + Bortezomib; first compound 1.265 µM): 0.585
- relative viability (Decitabine + Bortezomib; first compound 4 µM): 0.566
- relative viability (Decitabine + Crizotinib; first compound 0.04 µM): 0.962
- relative viability (Decitabine + Crizotinib; first compound 0.1265 µM): 0.857
- relative viability (Decitabine + Crizotinib; first compound 0.4 µM): 0.631
- relative viability (Decitabine + Crizotinib; first compound 1.265 µM): 0.6
- relative viability (Decitabine + Crizotinib; first compound 4 µM): 0.605
- relative viability ([1]; first compound 0.001 µM): 0.725
- relative viability ([1]; first compound 0.003162 µM): 0.766
- relative viability ([1]; first compound 0.01 µM): 0.755
- relative viability ([1]; first compound 0.03162 µM): 0.726
- relative viability ([1]; first compound 0.1 µM): 0.746

Cell Line: EBC-1
- relative viability (Decitabine + Bortezomib; first compound 0.04 µM): 0.395
- relative viability (Decitabine + Bortezomib; first compound 0.1265 µM): 0.406
- relative viability (Decitabine + Bortezomib; first compound 0.4 µM): 0.29
- relative viability (Decitabine + Bortezomib; first compound 1.265 µM): 0.268
- relative viability (Decitabine + Bortezomib; first compound 4 µM): 0.257
- relative viability (Decitabine + Crizotinib; first compound 0.04 µM): 0.146
- relative viability (Decitabine + Crizotinib; first compound 0.1265 µM): 0.176
- relative viability (Decitabine + Crizotinib; first compound 0.4 µM): 0.193
- relative viability (Decitabine + Crizotinib; first compound 1.265 µM): 0.144
- relative viability (Decitabine + Crizotinib; first compound 4 µM): 0.148

Cell Line: EKVX
- relative viability (Cediranib + Tozasertib; first compound 0.04 µM): 0.349
- relative viability (Cediranib + Tozasertib; first compound 0.1265 µM): 0.502
- relative viability (Cediranib + Tozasertib; first compound 0.4 µM): 0.366
- relative viability (Cediranib + Tozasertib; first compound 1.265 µM): 0.436
- relative viability (Cediranib + Tozasertib; first compound 4 µM): 0.473
- relative viability (Decitabine + Bortezomib; first compound 0.04 µM): 0.71
- relative viability (Decitabine + Bortezomib; first compound 0.1265 µM): 0.776
- relative viability (Decitabine + Bortezomib; first compound 0.4 µM): 0.798
- relative viability (Decitabine + Bortezomib; first compound 1.265 µM): 0.383
- relative viability (Decitabine + Bortezomib; first compound 4 µM): 0.381
- relative viability (Decitabine + Crizotinib; first compound 0.04 µM): 0.828
- relative viability (Decitabine + Crizotinib; first compound 0.1265 µM): 0.73
- relative viability (Decitabine + Crizotinib; first compound 0.4 µM): 0.503
- relative viability (Decitabine + Crizotinib; first compound 1.265 µM): 0.396
- relative viability (Decitabine + Crizotinib; first compound 4 µM): 0.364
- relative viability ([1]; first compound 0.001 µM): 0.787
- relative viability ([1]; first compound 0.003162 µM): 0.729
- relative viability ([1]; first compound 0.01 µM): 0.729
- relative viability ([1]; first compound 0.03162 µM): 0.693
- relative viability ([1]; first compound 0.1 µM): 0.572

Cell Line: EMC-BAC-2
- relative viability (Cediranib + Tozasertib; first compound 0.04 µM): 0.284
- relative viability (Cediranib + Tozasertib; first compound 0.1265 µM): 0.238
- relative viability (Cediranib + Tozasertib; first compound 0.4 µM): 0.278
- relative viability (Cediranib + Tozasertib; first compound 1.265 µM): 0.286
- relative viability (Cediranib + Tozasertib; first compound 4 µM): 0.3
- relative viability (Decitabine + Bortezomib; first compound 0.04 µM): 1.04
- relative viability (Decitabine + Bortezomib; first compound 0.1265 µM): 1.13
- relative viability (Decitabine + Bortezomib; first compound 0.4 µM): 0.754
- relative viability (Decitabine + Bortezomib; first compound 1.265 µM): 0.747
- relative viability (Decitabine + Bortezomib; first compound 4 µM): 0.632
- relative viability (Decitabine + Crizotinib; first compound 0.04 µM): 0.64
- relative viability (Decitabine + Crizotinib; first compound 0.1265 µM): 0.656
- relative viability (Decitabine + Crizotinib; first compound 0.4 µM): 0.454
- relative viability (Decitabine + Crizotinib; first compound 1.265 µM): 0.483
- relative viability (Decitabine + Crizotinib; first compound 4 µM): 0.402
- relative viability ([1]; first compound 0.001 µM): 0.592
- relative viability ([1]; first compound 0.003162 µM): 0.491
- relative viability ([1]; first compound 0.01 µM): 0.447
- relative viability ([1]; first compound 0.03162 µM): 0.334
- relative viability ([1]; first compound 0.1 µM): 0.14

Cell Line: EPLC-272H
- relative viability (Cediranib + Tozasertib; first compound 0.04 µM): 0.267
- relative viability (Cediranib + Tozasertib; first compound 0.4 µM): 0.31
- relative viability (Cediranib + Tozasertib; first compound 4 µM): 0.297
- relative viability (Decitabine + Bortezomib; first compound 0.04 µM): 0.884
- relative viability (Decitabine + Bortezomib; first compound 0.1265 µM): 0.57
- relative viability (Decitabine + Bortezomib; first compound 1.265 µM): 0.584
- relative viability (Decitabine + Bortezomib; first compound 4 µM): 0.418
- relative viability (Decitabine + Crizotinib; first compound 0.04 µM): 0.587
- relative viability (Decitabine + Crizotinib; first compound 0.1265 µM): 0.587
- relative viability (Decitabine + Crizotinib; first compound 1.265 µM): 0.414
- relative viability (Decitabine + Crizotinib; first compound 4 µM): 0.402
- relative viability ([1]; first compound 0.001 µM): 0.479
- relative viability ([1]; first compound 0.003162 µM): 0.401
- relative viability ([1]; first compound 0.01 µM): 0.304
- relative viability ([1]; first compound 0.03162 µM): 0.411
- relative viability ([1]; first compound 0.1 µM): 0.382

Cell Line: H3255
- relative viability (Cediranib + Tozasertib; first compound 0.04 µM): 0.578
- relative viability (Cediranib + Tozasertib; first compound 0.4 µM): 0.599
- relative viability (Cediranib + Tozasertib; first compound 1.265 µM): 0.654
- relative viability (Cediranib + Tozasertib; first compound 4 µM): 0.43
- relative viability (Decitabine + Bortezomib; first compound 0.04 µM): 0.294
- relative viability (Decitabine + Bortezomib; first compound 0.1265 µM): 0.751
- relative viability (Decitabine + Bortezomib; first compound 0.4 µM): 0.479
- relative viability (Decitabine + Bortezomib; first compound 1.265 µM): 0.521
- relative viability (Decitabine + Bortezomib; first compound 4 µM): 0.705
- relative viability (Decitabine + Crizotinib; first compound 0.04 µM): 0.417
- relative viability (Decitabine + Crizotinib; first compound 0.1265 µM): 0.82
- relative viability (Decitabine + Crizotinib; first compound 0.4 µM): 0.419
- relative viability (Decitabine + Crizotinib; first compound 1.265 µM): 0.537
- relative viability (Decitabine + Crizotinib; first compound 4 µM): 0.484
- relative viability ([1]; first compound 0.001 µM): 0.852
- relative viability ([1]; first compound 0.003162 µM): 0.818
- relative viability ([1]; first compound 0.01 µM): 0.761
- relative viability ([1]; first compound 0.03162 µM): 0.819
- relative viability ([1]; first compound 0.1 µM): 0.818

Cell Line: HARA
- relative viability (Cediranib + Tozasertib; first compound 0.04 µM): 0.125
- relative viability (Cediranib + Tozasertib; first compound 0.4 µM): 0.107
- relative viability (Cediranib + Tozasertib; first compound 1.265 µM): 0.118
- relative viability (Cediranib + Tozasertib; first compound 4 µM): 0.123
- relative viability (Decitabine + Bortezomib; first compound 0.04 µM): 0.819
- relative viability (Decitabine + Bortezomib; first compound 0.1265 µM): 0.7
- relative viability (Decitabine + Bortezomib; first compound 0.4 µM): 0.511
- relative viability (Decitabine + Bortezomib; first compound 1.265 µM): 0.431
- relative viability (Decitabine + Bortezomib; first compound 4 µM): 0.308
- relative viability (Decitabine + Crizotinib; first compound 0.04 µM): 0.774
- relative viability (Decitabine + Crizotinib; first compound 0.1265 µM): 0.745
- relative viability (Decitabine + Crizotinib; first compound 0.4 µM): 0.63
- relative viability (Decitabine + Crizotinib; first compound 1.265 µM): 0.379
- relative viability (Decitabine + Crizotinib; first compound 4 µM): 0.352
- relative viability ([1]; first compound 0.001 µM): 0.587
- relative viability ([1]; first compound 0.003162 µM): 0.675
- relative viability ([1]; first compound 0.01 µM): 0.512
- relative viability ([1]; first compound 0.03162 µM): 0.697
- relative viability ([1]; first compound 0.1 µM): 0.51

Cell Line: HCC-15
- relative viability (Cediranib + Tozasertib; first compound 0.04 µM): 0.507
- relative viability (Cediranib + Tozasertib; first compound 0.4 µM): 0.391
- relative viability (Cediranib + Tozasertib; first compound 1.265 µM): 0.36
- relative viability (Cediranib + Tozasertib; first compound 4 µM): 0.358
- relative viability (Decitabine + Bortezomib; first compound 0.04 µM): 0.936
- relative viability (Decitabine + Bortezomib; first compound 0.1265 µM): 0.891
- relative viability (Decitabine + Bortezomib; first compound 0.4 µM): 0.381
- relative viability (Decitabine + Bortezomib; first compound 1.265 µM): 0.467
- relative viability (Decitabine + Bortezomib; first compound 4 µM): 0.493
- relative viability (Decitabine + Crizotinib; first compound 0.04 µM): 0.705
- relative viability (Decitabine + Crizotinib; first compound 0.1265 µM): 0.643
- relative viability (Decitabine + Crizotinib; first compound 0.4 µM): 0.333
- relative viability (Decitabine + Crizotinib; first compound 1.265 µM): 0.412
- relative viability (Decitabine + Crizotinib; first compound 4 µM): 0.355
- relative viability ([1]; first compound 0.001 µM): 0.848
- relative viability ([1]; first compound 0.003162 µM): 0.866
- relative viability ([1]; first compound 0.01 µM): 0.902
- relative viability ([1]; first compound 0.03162 µM): 0.876
- relative viability ([1]; first compound 0.1 µM): 0.85

Cell Line: HCC-44
- relative viability (Cediranib + Tozasertib; first compound 0.4 µM): 0.893
- relative viability (Cediranib + Tozasertib; first compound 1.265 µM): 1.05
- relative viability (Cediranib + Tozasertib; first compound 4 µM): 0.831
- relative viability (Decitabine + Bortezomib; first compound 0.04 µM): 0.821
- relative viability (Decitabine + Bortezomib; first compound 0.1265 µM): 0.898
- relative viability (Decitabine + Bortezomib; first compound 0.4 µM): 0.536
- relative viability (Decitabine + Bortezomib; first compound 1.265 µM): 0.602
- relative viability (Decitabine + Bortezomib; first compound 4 µM): 0.548
- relative viability (Decitabine + Crizotinib; first compound 0.04 µM): 0.641
- relative viability (Decitabine + Crizotinib; first compound 0.1265 µM): 0.72
- relative viability (Decitabine + Crizotinib; first compound 0.4 µM): 0.28
- relative viability (Decitabine + Crizotinib; first compound 1.265 µM): 0.449
- relative viability (Decitabine + Crizotinib; first compound 4 µM): 0.374
- relative viability ([1]; first compound 0.001 µM): 1.15
- relative viability ([1]; first compound 0.003162 µM): 1.14
- relative viability ([1]; first compound 0.01 µM): 1.17
- relative viability ([1]; first compound 0.03162 µM): 1.2
- relative viability ([1]; first compound 0.1 µM): 1.05
